This note sets out measurements from ChEMBL document CHEMBL1201862, “PubChem BioAssay data set” (2004).

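Interpolation was linear, between the two tested concentrations surrounding the appropriate level; five concentrations were tested over 48 hours in 96-well plates. Abbreviation: GI50, concentration required for 50% inhibition of growth.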 The source made the active and inactive calls. Cut-off read from the data, not from the text of the source: active = GI50 up to about 1.1 µM and inactive = higher. Where only a bound is given, the exact number is not on record here.

Test systems include MOLT-4; NCI-H23; HCC 2998; T47D; UO-31; HCT-15; U-251; SK-MEL-2; SW-620; M14; COLO 205; 786-0; NCI-H522; UACC-62; CAKI-1; SNB-75; MDA-N; SR; RXF 393; K562.
Holding throughout (assay): growth of human tumour cells (NCI), 48 h

Turning to `CC(C)(C)OC(=O)N1CCC(C(=O)O)CC1`, the GI50 in the experiment on MOLT-4 was > 100 µM (inactive); in the experiment with NCI-H23, > 100 µM (inactive); in the experiment with HCC 2998, > 100 µM (inactive); in the experiment on T47D it was > 100 µM (inactive); in the experiment with UO-31 it was > 100 µM (inactive); in the experiment with HCT-15 it was over 100 µM. The GI50 with U-251, in the experiment with SK-MEL-2, with SW-620, with M14, in the experiment with COLO 205 and with 786-0 was > 100 µM (inactive) in each case. Further, the GI50 in the experiment on NCI-H522, in the experiment on UACC-62, in the experiment on CAKI-1, in the experiment with SNB-75, in the experiment on MDA-N and in the experiment on SR was > 100 µM (inactive) throughout.
`Cc1ccc(C)n1-n1c(Cc2ccc(Cl)cc2)n[nH]c1=O`: the GI50 in the experiment with MOLT-4 is 29 µM (inactive); with T47D, 39.9 µM (inactive); with UO-31 it was 58.7 µM (inactive); in the experiment with HCT-15, over 100 µM; with U-251, 77.6 µM (inactive); in the experiment on RXF 393, 59.3 µM (inactive). Moreover, the GI50 was 41.1 µM (inactive) in the experiment on K562; 31 µM (inactive) in the experiment on SK-MEL-2; > 100 µM (inactive) with SW-620; > 100 µM (inactive) in the experiment on M14; 83.6 µM (inactive) in the experiment on COLO 205; > 100 µM (inactive) in the experiment with 786-0. Also, the GI50 in the experiment with NCI-H522 is 20.9 µM (inactive); in the experiment on UACC-62, > 100 µM (inactive); with CAKI-1, 90.6 µM (inactive); with SNB-75, > 100 µM (inactive); with MDA-N, > 100 µM (inactive); in the experiment on SR, 33.2 µM (inactive).
For the molecule `O=C(CC(=O)n1nc(-c2ccccc2)c(/N=N/c2ccccc2C(=O)O)c1-c1ccccc1)Nc1ccc(Cl)cc1`, the GI50 in the experiment on MOLT-4 is 5.57 µM (inactive); in the experiment on NCI-H23, 20.5 µM (inactive); in the experiment on HCC 2998, 34.4 µM (inactive); in the experiment on T47D, 9.77 µM (inactive); in the experiment with UO-31, 15.5 µM (inactive); with HCT-15, 26.9 µM. In addition, the GI50 with U-251 was 19.2 µM (inactive); in the experiment with RXF 393, 7.66 µM (inactive); in the experiment with K562, 25.6 µM (inactive); in the experiment on SK-MEL-2, 29.5 µM (inactive); in the experiment on SW-620, 63.8 µM (inactive); with M14, 55.8 µM (inactive). In addition, the GI50 is 50.7 µM (inactive) with COLO 205; 36.1 µM (inactive) in the experiment on 786-0; 77.1 µM (inactive) with UACC-62; 27.9 µM (inactive) in the experiment on SNB-75; 36.1 µM (inactive) with MDA-N; 11.6 µM (inactive) in the experiment with SR.
For the molecule `COc1cc(OC)c(C2c3cc4c(cc3OC(N3CCOCC3)C2C)OCO4)c(OC)c1` (stereo not drawn), the GI50 with MOLT-4 was 21.4 µM (inactive); with NCI-H23 it was > 100 µM (inactive); with HCC 2998, > 100 µM (inactive); with T47D, 17.7 µM (inactive); with UO-31, 16.5 µM (inactive); in the experiment on HCT-15 it was 17.4 µM. The GI50 in the experiment with K562 is 40.8 µM (inactive); in the experiment on SK-MEL-2 it was > 100 µM (inactive); with SW-620 it was 23.4 µM (inactive); in the experiment with M14, 53.1 µM (inactive); in the experiment with COLO 205, 35.2 µM (inactive); with 786-0, 40.7 µM (inactive). For the same molecule, the GI50 in the experiment on NCI-H522 was > 100 µM (inactive); in the experiment on UACC-62, 29.9 µM (inactive); in the experiment on SNB-75 it was 16.4 µM (inactive); with MDA-N it was 72.6 µM (inactive); in the experiment on SR, 18 µM (inactive).
Consider `CCOC(=O)c1ccc(N(C)Cc2cnc3nc(N)nc(N)c3n2)cc1`, for which the GI50 in the experiment with MOLT-4 was 7.91 µM (inactive); with NCI-H23, 9.04 µM (inactive); with T47D, 26.9 µM (inactive); in the experiment with UO-31, 14.2 µM (inactive); in the experiment with HCT-15, 4.85 µM; in the experiment with U-251 it was 8.99 µM (inactive). The GI50 is 5.97 µM (inactive) with RXF 393; 2.58 µM (inactive) in the experiment on K562; 21.4 µM (inactive) with SK-MEL-2; 6.3 µM (inactive) in the experiment on SW-620; 7.83 µM (inactive) in the experiment on M14; > 100 µM (inactive) with COLO 205. For the same molecule, the GI50 was 7.45 µM (inactive) in the experiment with 786-0; 5.42 µM (inactive) with UACC-62; 14.4 µM (inactive) in the experiment with CAKI-1; 16.3 µM (inactive) in the experiment with SNB-75; 18.5 µM (inactive) in the experiment with MDA-N; 6.81 µM (inactive) in the experiment with SR.
`Cc1nnc(S(=O)(=O)c2ccc(/N=N/c3c(N)nc(N)nc3N)cc2)s1`: the GI50 with MOLT-4 is > 100 µM (inactive); in the experiment on NCI-H23, > 100 µM (inactive); in the experiment with T47D it was > 100 µM (inactive); in the experiment with UO-31, > 100 µM (inactive); in the experiment with HCT-15, over 100 µM; in the experiment on U-251, > 100 µM (inactive). Besides, the GI50 in the experiment with RXF 393, with K562, with SK-MEL-2, with SW-620, in the experiment with M14 and with COLO 205 was > 100 µM (inactive) each time. Further, the GI50 in the experiment with 786-0, in the experiment on NCI-H522, with UACC-62, in the experiment with CAKI-1, in the experiment with MDA-N and with SR was > 100 µM (inactive) in each case.
With `c1ccc(-c2cc(-c3cccs3)c(-c3cccs3)o2)cc1`, the GI50 in the experiment with MOLT-4 is > 100 µM (inactive); in the experiment on NCI-H23 it was > 100 µM (inactive); in the experiment on HCC 2998 it was > 100 µM (inactive); in the experiment on T47D it was > 100 µM (inactive); in the experiment on UO-31, > 100 µM (inactive); in the experiment with HCT-15, over 100 µM. The GI50 in the experiment with U-251 was > 100 µM (inactive); in the experiment on RXF 393 it was > 100 µM (inactive); with K562, > 100 µM (inactive); with SK-MEL-2, 34.7 µM (inactive); in the experiment on SW-620, > 100 µM (inactive); with M14, > 100 µM (inactive). Also, the GI50 in the experiment with COLO 205, with 786-0, with UACC-62, in the experiment with CAKI-1, in the experiment on SNB-75 and in the experiment on MDA-N was > 100 µM (inactive) each time. In addition, the GI50 in the experiment on SR was > 100 µM (inactive).
Turning to `CSCCCS/C1=C/CCCCCCCCCC1`, the GI50 in the experiment with MOLT-4 was > 100 µM (inactive); in the experiment on NCI-H23, > 100 µM (inactive); with HCC 2998, > 100 µM (inactive); in the experiment with T47D, > 100 µM (inactive); with UO-31, > 100 µM (inactive); with HCT-15 it was over 100 µM. The GI50 in the experiment on U-251, in the experiment on RXF 393, with K562, with SK-MEL-2, with M14 and with COLO 205 was > 100 µM (inactive) each time. The GI50 is > 100 µM (inactive) with 786-0; > 100 µM (inactive) in the experiment on UACC-62; > 100 µM (inactive) in the experiment with CAKI-1; 0.281 µM (active) in the experiment with SNB-75; > 100 µM (inactive) in the experiment on MDA-N; > 100 µM (inactive) in the experiment with SR.
As to `C=C1CC[C@@]2(C)[C@@H]([C@@H]1C)[C@H]1CC[C@@H]3[C@@]4(C)CC[C@H](O)C(C)(C)[C@@H]4CC[C@@]3(C)[C@]1(C)C[C@@H]2O`, the GI50 with MOLT-4 was 3.22 µM (inactive); in the experiment on NCI-H23 it was 2.48 µM (inactive); in the experiment with T47D it was 2.55 µM (inactive); in the experiment with UO-31 it was 2.5 µM (inactive); with HCT-15, 3.24 µM; in the experiment on U-251 it was 1.73 µM (inactive). The GI50 with RXF 393 was 1.77 µM (inactive); in the experiment on SK-MEL-2, 3.67 µM (inactive); in the experiment on SW-620 it was 4.03 µM (inactive); in the experiment with M14 it was 4.66 µM (inactive); with COLO 205, 4.23 µM (inactive); with 786-0 it was 2.7 µM (inactive). For the same molecule, the GI50 with NCI-H522 is 1.95 µM (inactive); in the experiment with UACC-62 it was 7.45 µM (inactive); in the experiment with CAKI-1, 2.42 µM (inactive); in the experiment on MDA-N, 8.53 µM (inactive); in the experiment on SR it was > 100 µM (inactive).
As to `NC1CC(N)c2c(Br)sc(Br)c21` (stereo not drawn), the GI50 with MOLT-4 was 67.5 µM (inactive); in the experiment with NCI-H23, > 100 µM (inactive); in the experiment with HCC 2998, 55.8 µM (inactive); with T47D, 54 µM (inactive); with UO-31 it was 41.4 µM (inactive); in the experiment on HCT-15, over 100 µM. Moreover, the GI50 is > 100 µM (inactive) in the experiment on U-251; > 100 µM (inactive) in the experiment on K562; > 100 µM (inactive) with SK-MEL-2; 62.2 µM (inactive) with SW-620; > 100 µM (inactive) in the experiment with M14; > 100 µM (inactive) in the experiment with COLO 205. Besides, the GI50 is 95.3 µM (inactive) with 786-0; 44.1 µM (inactive) in the experiment with NCI-H522; > 100 µM (inactive) with UACC-62; > 100 µM (inactive) in the experiment with CAKI-1; > 100 µM (inactive) with MDA-N; 59.4 µM (inactive) in the experiment with SR.
For `N=C(N)NCCCC(=O)O`, the GI50 was > 100 µM (inactive) in the experiment on MOLT-4; > 100 µM (inactive) with NCI-H23; > 100 µM (inactive) in the experiment on T47D; > 100 µM (inactive) in the experiment with UO-31; over 100 µM in the experiment on HCT-15; > 100 µM (inactive) with U-251. Besides, the GI50 with RXF 393, with K562, in the experiment on SK-MEL-2, with SW-620, with M14 and with COLO 205 was > 100 µM (inactive) throughout. The GI50 in the experiment on 786-0, with NCI-H522, with UACC-62, with CAKI-1, with SNB-75 and in the experiment on MDA-N was > 100 µM (inactive) throughout. In addition, the GI50 in the experiment on SR is > 100 µM (inactive).
